# Measured values as given in ChEMBL document CHEMBL5331094, “Identification of 2,4,5-trisubstituted-2,4-dihydro-3H-1,2,4-triazol-3-one-based small molecules as selective BRD9 binders” (Eur J Med Chem, 2023).
# Legend:
# [1] = biological target: Bromodomain-containing protein 3 (Homo sapiens) (UniProt Q15059); assay: Binding affinity of recombinant His-tagged BRD3-BD1 (unknown origin) to histone H4Ac (1 to 21 residues) K5/8/12/Ac-Biotin-OH assessed as residual binding at 10 uM incubated for 30 mins by alphascreen analysis relative to control
# [2] = biological target: Bromodomain-containing protein 4 (Homo sapiens) (UniProt O60885); assay: Binding affinity of recombinant His-tagged BRD4-BD1 (unknown origin) to histone H4Ac (1 to 21 residues) K5/8/12/Ac-Biotin-OH assessed as residual binding at 10 uM incubated for 30 mins by alphascreen analysis relative to control
# [3] = biological target: CREB-binding protein (Homo sapiens) (UniProt Q92793); assay: Binding affinity of recombinant His-tagged CREBBP (unknown origin) to histone H4Ac (1 to 21 residues) K5/8/12/Ac-Biotin-OH assessed as residual binding at 10 uM incubated for 30 mins by alphascreen analysis relative to control
# Jurkat = assay: Cytotoxicity against human Jurkat cells assessed as cell viability measured after 24 hrs by MTT assay; type: functional, cell-based
# [4] = biological target: Bromodomain and PHD finger-containing protein 3 (Homo sapiens) (UniProt Q9ULD4); assay: Binding affinity of recombinant His-tagged BRPF-3 (unknown origin) to histone H4Ac (1 to 21 residues) K5/8/12/Ac-Biotin-OH assessed as residual binding at 10 uM incubated for 30 mins by alphascreen analysis relative to control
# [5] = biological target: Bromodomain-containing protein 2 (Homo sapiens) (UniProt P25440); assay: Binding affinity of recombinant His-tagged BRD2-BD1 (unknown origin) to histone H4Ac (1 to 21 residues) K5/8/12/Ac-Biotin-OH assessed as residual binding at 10 uM incubated for 30 mins by alphascreen analysis relative to control
# [6] = Cytotoxicity against human erythrocytes assessed as cell viability measured after 24 hrs by MTT assay; type: toxicity, cell-based, Erythrocyte
# [7] = biological target: T1, Bromodomain-containing protein 9 (Homo sapiens, UniProt Q9H8M2); assay: Inhibition of BRD9 (unknown origin) by alpha screen analysis
# T1 sequence (Q9H8M2 whole entry): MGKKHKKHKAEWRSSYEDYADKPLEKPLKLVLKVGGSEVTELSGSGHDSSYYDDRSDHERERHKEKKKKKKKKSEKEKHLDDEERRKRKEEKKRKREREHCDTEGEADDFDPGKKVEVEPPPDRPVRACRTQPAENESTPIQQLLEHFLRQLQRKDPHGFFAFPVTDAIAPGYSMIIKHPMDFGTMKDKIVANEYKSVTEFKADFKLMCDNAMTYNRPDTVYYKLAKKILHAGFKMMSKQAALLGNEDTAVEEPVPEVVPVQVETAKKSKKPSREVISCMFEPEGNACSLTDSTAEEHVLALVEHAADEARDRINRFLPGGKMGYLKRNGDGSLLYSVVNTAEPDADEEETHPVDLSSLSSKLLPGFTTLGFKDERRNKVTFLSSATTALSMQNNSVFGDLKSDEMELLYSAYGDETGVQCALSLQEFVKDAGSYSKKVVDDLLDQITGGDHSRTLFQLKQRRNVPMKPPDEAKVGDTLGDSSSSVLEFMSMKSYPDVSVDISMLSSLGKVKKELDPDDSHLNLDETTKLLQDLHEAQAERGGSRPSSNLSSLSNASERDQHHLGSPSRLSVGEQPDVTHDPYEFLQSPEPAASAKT
# [8] = biological target: Bromodomain-containing protein 7 (Homo sapiens) (UniProt Q9NPI1); assay: Binding affinity of recombinant His-tagged […] (unknown origin) to histone H3 (1 to 30 residues) K4/18/23/27Ac assessed as residual binding at 10 uM incubated for 30 mins by alphascreen analysis relative to control
# A-375 = assay: Cytotoxicity against human A-375 cells assessed as cell viability measured after 24 hrs by MTT assay; type: functional, cell-based; conditions: A-375, 24 h
# [9] = biological target: Bromodomain adjacent to zinc finger domain protein 2B (Homo sapiens) (UniProt Q9UIF8); assay: Binding affinity of recombinant His-tagged BAZ2B (unknown origin) to histone H3 (1 to 21 residues) K9/14Ac-Biotin-OH assessed as residual binding at 10 uM incubated for 30 mins by alphascreen analysis relative to control
# [10] = biological target: Bromodomain-containing protein 3 (Homo sapiens) (UniProt Q15059); assay: Binding affinity of recombinant His-tagged BRD3-BD2 (unknown origin) to histone H4Ac (1 to 21 residues) K5/8/12/Ac-Biotin-OH assessed as residual binding at 10 uM incubated for 30 mins by alphascreen analysis relative to control
# HaCaT = assay: Cytotoxicity against human HaCaT cells assessed as cell viability measured after 24 hrs by MTT assay; type: functional, cell-based
# [11] = biological target: ATPase family AAA domain-containing protein 2 (Homo sapiens) (UniProt Q6PL18); assay: Binding affinity of recombinant His-tagged ATAD2 (unknown origin) to histone H4Ac (1 to 21 residues) K5/8/12/Ac-Biotin-OH assessed as residual binding at 10 uM incubated for 30 mins by alphascreen analysis relative to control
# [12] = biological target: Bromodomain-containing protein 1 (Homo sapiens) (UniProt O95696); assay: Binding affinity of recombinant His-tagged BRD1 (unknown origin) to histone H4Ac (1 to 21 residues) K5/8/12/Ac-Biotin-OH assessed as residual binding at 10 uM incubated for 30 mins by alphascreen analysis relative to control
# [13] = biological target: SWI/SNF-related matrix-associated actin-dependent regulator of chromatin subfamily A member 4 (Homo sapiens) (UniProt P51532); assay: Binding affinity of recombinant His-tagged SMARCA4 (unknown origin) to histone H3 (1 to 30 residues) K4/18/23/27Ac assessed as residual binding at 10 uM incubated for 30 mins by alphascreen analysis relative to control
# [14] = biological target: Bromodomain-containing protein 7 (Homo sapiens, UniProt Q9NPI1); assay: Inhibition of recombinant His-tagged […] (unknown origin) to histone H3 (1 to 30 residues) K4/18/23/27Ac incubated for 30 mins by alphascreen analysis
# [15] = biological target: Bromodomain-containing protein 2 (Homo sapiens) (UniProt P25440); assay: Binding affinity of recombinant His-tagged BRD2-BD2 (unknown origin) to histone H4Ac (1 to 21 residues) K5/8/12/Ac-Biotin-OH assessed as residual binding at 10 uM incubated for 30 mins by alphascreen analysis relative to control
# Caco-2 = assay: Cytotoxicity against human Caco-2 cells assessed as cell viability measured after 24 hrs by MTT assay; type: functional, cell-based; conditions: Caco-2, 24 h
# [16] = biological target: T2, Bromodomain-containing protein 9 (Homo sapiens) (UniProt Q9H8M2); assay: Binding affinity of GST-tagged BRD9 domain (unknown origin) to histone H4Ac (1 to 21 residues) assessed as residual binding at 10 uM by alphascreen analysis relative to control
# T2 sequence (whole entry): T1 sequence (Q9H8M2 whole entry)
# [17] = biological target: Nucleosome-remodeling factor subunit BPTF (Homo sapiens) (UniProt Q12830); assay: Binding affinity of recombinant His-tagged BPTF (unknown origin) to histone H4Ac (1 to 21 residues) K5/8/12/Ac-Biotin-OH assessed as residual binding at 10 uM incubated for 30 mins by alphascreen analysis relative to control
# MCF7 = assay: Cytotoxicity against human MCF7 cells assessed as cell viability measured after 24 hrs by MTT assay; type: functional, cell-based; conditions: MCF7, 24 h
# [18] = biological target: Bromodomain testis-specific protein (Homo sapiens) (UniProt Q58F21); assay: Binding affinity of recombinant His-tagged BRDT-BD1 (unknown origin) to histone H4Ac (1 to 21 residues) K5/8/12/Ac-Biotin-OH assessed as residual binding at 10 uM incubated for 30 mins by alphascreen analysis relative to control
# [19] = biological target: Transcription initiation factor TFIID subunit 1 (Homo sapiens) (UniProt P21675); assay: Binding affinity of recombinant His-tagged TAF1 (unknown origin) to histone H4Ac (1 to 21 residues) K5/8/12/Ac-Biotin-OH assessed as residual binding at 10 uM incubated for 30 mins by alphascreen analysis relative to control
# [20] = biological target: Bromodomain-containing protein 4 (Homo sapiens) (UniProt O60885); assay: Binding affinity of recombinant His-tagged BRD4-BD2 (unknown origin) to histone H4Ac (1 to 21 residues) K5/8/12/Ac-Biotin-OH assessed as residual binding at 10 uM incubated for 30 mins by alphascreen analysis relative to control
# [21] = biological target: Chromatin remodeling regulator CECR2 (Homo sapiens) (UniProt Q9BXF3); assay: Binding affinity of recombinant His-tagged CECR2 (unknown origin) to histone H4Ac (1 to 21 residues) K5/8/12/Ac-Biotin-OH assessed as residual binding at 10 uM incubated for 30 mins by alphascreen analysis relative to control
# Sequence of Chromatin remodeling regulator CECR2 (Homo sapiens) (Q9BXF3 whole entry, looked up, the tested form may be a part): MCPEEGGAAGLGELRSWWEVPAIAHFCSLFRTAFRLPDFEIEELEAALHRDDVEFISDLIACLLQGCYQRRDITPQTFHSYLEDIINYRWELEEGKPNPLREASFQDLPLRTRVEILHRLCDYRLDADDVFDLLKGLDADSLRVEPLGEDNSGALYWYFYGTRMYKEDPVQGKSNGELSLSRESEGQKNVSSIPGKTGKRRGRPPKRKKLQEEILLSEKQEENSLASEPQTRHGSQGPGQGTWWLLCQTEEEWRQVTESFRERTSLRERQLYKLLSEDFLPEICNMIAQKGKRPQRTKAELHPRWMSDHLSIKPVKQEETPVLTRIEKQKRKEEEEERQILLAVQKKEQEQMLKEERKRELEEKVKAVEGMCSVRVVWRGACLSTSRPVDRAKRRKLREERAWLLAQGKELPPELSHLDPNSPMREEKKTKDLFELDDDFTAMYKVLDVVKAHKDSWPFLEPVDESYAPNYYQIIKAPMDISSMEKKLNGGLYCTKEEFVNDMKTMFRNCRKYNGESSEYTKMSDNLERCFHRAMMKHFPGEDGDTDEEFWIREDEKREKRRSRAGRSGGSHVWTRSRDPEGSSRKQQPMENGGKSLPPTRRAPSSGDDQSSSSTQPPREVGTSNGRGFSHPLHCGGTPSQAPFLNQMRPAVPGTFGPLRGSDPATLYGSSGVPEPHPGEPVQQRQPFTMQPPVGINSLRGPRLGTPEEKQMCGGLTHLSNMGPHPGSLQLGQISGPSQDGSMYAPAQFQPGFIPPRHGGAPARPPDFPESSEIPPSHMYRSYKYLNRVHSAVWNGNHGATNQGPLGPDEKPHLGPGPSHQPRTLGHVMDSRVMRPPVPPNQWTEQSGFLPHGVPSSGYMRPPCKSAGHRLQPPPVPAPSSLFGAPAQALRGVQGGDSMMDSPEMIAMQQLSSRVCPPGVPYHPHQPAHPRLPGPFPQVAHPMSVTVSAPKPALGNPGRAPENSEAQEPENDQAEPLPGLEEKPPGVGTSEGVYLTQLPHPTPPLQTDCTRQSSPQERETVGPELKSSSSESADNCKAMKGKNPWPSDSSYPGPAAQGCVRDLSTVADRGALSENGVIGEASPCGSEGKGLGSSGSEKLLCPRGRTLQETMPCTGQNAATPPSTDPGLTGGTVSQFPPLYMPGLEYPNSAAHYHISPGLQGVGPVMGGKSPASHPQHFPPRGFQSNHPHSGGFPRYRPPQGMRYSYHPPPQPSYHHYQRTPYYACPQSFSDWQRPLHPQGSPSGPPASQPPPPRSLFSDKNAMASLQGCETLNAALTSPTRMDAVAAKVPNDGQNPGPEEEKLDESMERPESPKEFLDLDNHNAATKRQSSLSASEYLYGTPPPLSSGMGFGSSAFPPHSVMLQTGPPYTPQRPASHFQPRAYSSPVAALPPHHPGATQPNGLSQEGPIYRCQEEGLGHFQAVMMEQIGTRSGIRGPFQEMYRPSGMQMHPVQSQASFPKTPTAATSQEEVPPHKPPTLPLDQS
# Sequence of Bromodomain-containing protein 2 (Homo sapiens) (P25440 whole entry, looked up, the tested form may be a part): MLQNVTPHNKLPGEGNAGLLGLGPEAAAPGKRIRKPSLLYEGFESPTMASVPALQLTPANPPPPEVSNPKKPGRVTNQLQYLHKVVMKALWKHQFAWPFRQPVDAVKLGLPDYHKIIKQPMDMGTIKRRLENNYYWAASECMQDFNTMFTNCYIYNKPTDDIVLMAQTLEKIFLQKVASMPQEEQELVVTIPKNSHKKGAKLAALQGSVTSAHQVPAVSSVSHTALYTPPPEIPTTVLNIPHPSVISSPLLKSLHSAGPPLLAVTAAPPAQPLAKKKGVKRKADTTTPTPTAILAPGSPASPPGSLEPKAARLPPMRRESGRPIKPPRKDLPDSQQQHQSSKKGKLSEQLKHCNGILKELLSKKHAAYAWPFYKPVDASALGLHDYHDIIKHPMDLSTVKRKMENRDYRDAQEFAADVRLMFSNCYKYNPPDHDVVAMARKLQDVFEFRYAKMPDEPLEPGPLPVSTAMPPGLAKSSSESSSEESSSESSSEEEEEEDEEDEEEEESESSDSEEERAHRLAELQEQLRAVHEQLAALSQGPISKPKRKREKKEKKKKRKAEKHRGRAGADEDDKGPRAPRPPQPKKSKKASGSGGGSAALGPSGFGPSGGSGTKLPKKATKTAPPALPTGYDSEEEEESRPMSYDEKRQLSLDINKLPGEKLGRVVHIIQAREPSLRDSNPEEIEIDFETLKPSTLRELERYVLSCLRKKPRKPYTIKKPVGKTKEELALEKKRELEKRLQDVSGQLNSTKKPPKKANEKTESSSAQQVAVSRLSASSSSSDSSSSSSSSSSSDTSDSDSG
# Sequence of Bromodomain-containing protein 3 (Homo sapiens) (Q15059 2-726 limits assumed): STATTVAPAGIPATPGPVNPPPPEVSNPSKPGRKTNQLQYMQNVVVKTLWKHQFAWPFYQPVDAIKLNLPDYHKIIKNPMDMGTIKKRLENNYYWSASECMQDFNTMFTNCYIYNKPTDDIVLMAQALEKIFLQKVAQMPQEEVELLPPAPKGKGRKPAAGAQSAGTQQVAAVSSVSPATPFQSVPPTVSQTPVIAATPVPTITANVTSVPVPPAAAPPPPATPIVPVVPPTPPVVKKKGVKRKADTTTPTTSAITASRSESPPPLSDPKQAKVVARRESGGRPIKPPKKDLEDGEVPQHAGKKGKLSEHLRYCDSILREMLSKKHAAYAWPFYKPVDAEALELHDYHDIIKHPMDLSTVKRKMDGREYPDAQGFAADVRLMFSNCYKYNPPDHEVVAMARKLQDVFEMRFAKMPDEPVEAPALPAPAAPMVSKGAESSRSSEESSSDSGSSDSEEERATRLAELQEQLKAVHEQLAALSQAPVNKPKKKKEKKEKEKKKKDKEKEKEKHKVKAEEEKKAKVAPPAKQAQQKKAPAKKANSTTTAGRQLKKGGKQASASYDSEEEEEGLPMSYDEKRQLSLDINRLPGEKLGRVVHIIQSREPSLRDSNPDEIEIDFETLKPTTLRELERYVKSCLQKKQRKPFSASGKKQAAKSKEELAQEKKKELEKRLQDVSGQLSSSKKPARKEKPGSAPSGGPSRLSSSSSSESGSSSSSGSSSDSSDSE
# Sequence of Bromodomain and PHD finger-containing protein 3 (Homo sapiens) (Q9ULD4 whole entry, the tested form may be a part): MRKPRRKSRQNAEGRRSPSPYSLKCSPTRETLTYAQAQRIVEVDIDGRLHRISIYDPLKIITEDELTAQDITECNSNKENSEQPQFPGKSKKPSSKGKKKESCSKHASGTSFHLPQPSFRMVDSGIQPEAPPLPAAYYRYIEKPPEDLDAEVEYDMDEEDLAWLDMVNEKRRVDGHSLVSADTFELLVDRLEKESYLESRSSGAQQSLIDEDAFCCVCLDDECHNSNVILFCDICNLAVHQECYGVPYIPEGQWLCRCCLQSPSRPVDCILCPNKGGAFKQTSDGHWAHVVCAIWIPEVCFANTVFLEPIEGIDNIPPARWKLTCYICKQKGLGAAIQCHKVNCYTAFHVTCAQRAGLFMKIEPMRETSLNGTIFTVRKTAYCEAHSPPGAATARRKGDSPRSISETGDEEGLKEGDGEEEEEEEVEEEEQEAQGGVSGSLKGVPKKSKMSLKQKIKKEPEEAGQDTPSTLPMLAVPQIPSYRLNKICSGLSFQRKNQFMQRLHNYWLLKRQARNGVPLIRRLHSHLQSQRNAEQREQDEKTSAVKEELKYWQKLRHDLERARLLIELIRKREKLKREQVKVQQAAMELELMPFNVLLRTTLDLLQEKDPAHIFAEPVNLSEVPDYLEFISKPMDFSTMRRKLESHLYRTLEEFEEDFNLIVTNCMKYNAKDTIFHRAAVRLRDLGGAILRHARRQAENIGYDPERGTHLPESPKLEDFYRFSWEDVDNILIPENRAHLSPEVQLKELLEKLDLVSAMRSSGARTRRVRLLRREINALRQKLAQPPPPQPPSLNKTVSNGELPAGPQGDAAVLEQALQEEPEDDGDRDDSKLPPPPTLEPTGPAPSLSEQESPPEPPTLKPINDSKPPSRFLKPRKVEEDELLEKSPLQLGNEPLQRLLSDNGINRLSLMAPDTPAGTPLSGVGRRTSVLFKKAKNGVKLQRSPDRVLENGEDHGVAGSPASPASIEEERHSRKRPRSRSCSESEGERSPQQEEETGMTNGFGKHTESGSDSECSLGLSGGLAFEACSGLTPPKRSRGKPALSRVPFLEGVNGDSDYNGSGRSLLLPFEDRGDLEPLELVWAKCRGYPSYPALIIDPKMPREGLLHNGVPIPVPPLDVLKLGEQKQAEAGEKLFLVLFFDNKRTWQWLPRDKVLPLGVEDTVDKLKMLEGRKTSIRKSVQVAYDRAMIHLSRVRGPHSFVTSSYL
# Sequence of Bromodomain-containing protein 7 (Homo sapiens) (Q9NPI1 whole entry, the tested form may be a part): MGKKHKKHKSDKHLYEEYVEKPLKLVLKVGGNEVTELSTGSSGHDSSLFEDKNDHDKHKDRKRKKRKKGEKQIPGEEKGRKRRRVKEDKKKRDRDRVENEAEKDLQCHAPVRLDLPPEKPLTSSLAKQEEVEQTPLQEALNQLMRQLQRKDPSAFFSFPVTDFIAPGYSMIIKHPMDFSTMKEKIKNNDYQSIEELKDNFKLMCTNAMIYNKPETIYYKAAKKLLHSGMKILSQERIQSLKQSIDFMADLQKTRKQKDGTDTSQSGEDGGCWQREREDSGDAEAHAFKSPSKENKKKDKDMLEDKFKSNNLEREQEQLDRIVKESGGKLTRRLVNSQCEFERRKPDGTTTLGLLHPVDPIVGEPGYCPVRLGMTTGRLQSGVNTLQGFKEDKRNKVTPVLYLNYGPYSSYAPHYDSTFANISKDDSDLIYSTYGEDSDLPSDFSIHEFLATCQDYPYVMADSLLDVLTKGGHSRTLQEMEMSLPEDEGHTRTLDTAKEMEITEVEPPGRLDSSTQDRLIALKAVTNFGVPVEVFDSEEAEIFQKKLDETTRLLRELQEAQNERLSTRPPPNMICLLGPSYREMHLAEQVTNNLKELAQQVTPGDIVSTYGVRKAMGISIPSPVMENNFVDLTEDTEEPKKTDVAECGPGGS
# Sequence of Bromodomain-containing protein 7 (Q9NPI1 whole entry, the tested form may be a part): as above
smiles,measurement,setting,value
CCc1nn(C)c(=O)n1-c1ccc2c(c1)OCO2,Activity,[1],96.5%
same,Activity,[2],> 100%
same,Activity,[3],97.7%
same,IC50,Jurkat,145 µM
same,Activity,[4],94.2%
same,Activity,[5],98.9%
same,IC50 at 24 h,[6],> 500 µM
same,IC50,[7],0.14 µM
same,Activity,[8],75.8%
same,IC50,A-375,270 µM
same,Activity,[9],> 100%
same,Activity,[10],> 100%
same,IC50,HaCaT,> 500 µM
same,Activity,[11],> 100%
same,Activity,[12],97.3%
same,Activity,[13],96.5%
same,IC50,[14],71.4 µM
same,Activity,[15],> 100%
same,IC50,Caco-2,330 µM
same,Activity,[16],21.1%
same,Activity,[17],95.5%
same,IC50,MCF7,500 µM
same,Activity,[18],> 100%
same,Activity,[19],77.7%
same,Activity,[20],88.6%
same,Activity,[21],92.6%
